# Measured values taken from PubChem BioAssay (NCI).
#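 48-hour exposure; five concentrations; linearly interpolated endpoints. The concentration for full growth arrest is given as TGI.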
# Experiments:
# Test in all cases: NCI anticancer screen, dose series, 48 h
# T-47D breast = test system: T-47D breast
# SK-MEL-5 melanoma = test system: SK-MEL-5 melanoma
# MDA-MB-231 breast = test system: MDA-MB-231 breast
# HOP-62 NSCLC = test system: HOP-62 NSCLC
# SF-539 CNS = test system: SF-539 CNS
# HCT-15 colon = test system: HCT-15 colon
# HOP-92 NSCLC = test system: HOP-92 NSCLC
# OVCAR-4 ovarian = test system: OVCAR-4 ovarian
# K-562 leukemia = test system: K-562 leukemia
# CAKI-1 renal = test system: CAKI-1 renal
# SNB-19 CNS = test system: SNB-19 CNS
# HCC-2998 colon = test system: HCC-2998 colon
# MOLT-4 leukemia = test system: MOLT-4 leukemia
# SW-620 colon = test system: SW-620 colon
# NCI-H226 lung = test system: NCI-H226 lung
# LOX IMVI melanoma = test system: LOX IMVI melanoma
# 786-0 renal = test system: 786-0 renal
# NCI-H522 lung = test system: NCI-H522 lung
# SN12C renal = test system: SN12C renal
# HL-60(TB) leukemia = test system: HL-60(TB) leukemia
# COLO 205 colon = test system: COLO 205 colon
# UACC-257 melanoma = test system: UACC-257 melanoma
# A498 renal = test system: A498 renal
# OVCAR-5 ovarian = test system: OVCAR-5 ovarian
# NCI-H460 lung = test system: NCI-H460 lung
# SNB-75 CNS = test system: SNB-75 CNS
# HS 578T breast = test system: HS 578T breast
# RXF 393 renal = test system: RXF 393 renal
# DU-145 prostate = test system: DU-145 prostate
# U251 CNS = test system: U251 CNS
# ACHN renal = test system: ACHN renal
# NCI-H23 lung = test system: NCI-H23 lung
# TK-10 renal = test system: TK-10 renal
# BT-549 breast = test system: BT-549 breast
# RPMI-8226 leukemia = test system: RPMI-8226 leukemia
# OVCAR-3 ovarian = test system: OVCAR-3 ovarian
# EKVX NSCLC = test system: EKVX NSCLC
# KM12 colon = test system: KM12 colon
# HT29 colon = test system: HT29 colon
# SR leukemia = test system: SR leukemia
# SK-MEL-2 melanoma = test system: SK-MEL-2 melanoma
# CCRF-CEM leukemia = test system: CCRF-CEM leukemia
# SK-OV-3 ovarian = test system: SK-OV-3 ovarian
# IGROV1 ovarian = test system: IGROV1 ovarian
# SF-268 CNS = test system: SF-268 CNS
# MALME-3M melanoma = test system: MALME-3M melanoma
# MCF7 breast = test system: MCF7 breast
# UO-31 renal = test system: UO-31 renal
# HCT-116 colon = test system: HCT-116 colon
# M14 melanoma = test system: M14 melanoma
# UACC-62 melanoma = test system: UACC-62 melanoma
# SF-295 CNS = test system: SF-295 CNS
# MDA-MB-435 = test system: MDA-MB-435
# PC-3 prostate = test system: PC-3 prostate
# SK-MEL-28 melanoma = test system: SK-MEL-28 melanoma
# A549 NSCLC = test system: A549 NSCLC
# OVCAR-8 ovarian = test system: OVCAR-8 ovarian
# NCI/ADR-RES ovarian = test system: NCI/ADR-RES ovarian
structure (smiles),measurement,setting,value
c1ccc2c(c1)Sc1ccccc1N2CC1CN2CCC1CC2 (stereo not drawn),TGI,T-47D breast,8.65 µM
same,TGI,SK-MEL-5 melanoma,7.63 µM
same,TGI,MDA-MB-231 breast,15 µM
same,TGI,HOP-62 NSCLC,27 µM
same,TGI,SF-539 CNS,21.8 µM
same,TGI,HCT-15 colon,19.6 µM
same,TGI,HOP-92 NSCLC,25.2 µM
same,TGI,OVCAR-4 ovarian,20.8 µM
same,TGI,K-562 leukemia,4.72 µM
same,TGI,CAKI-1 renal,21 µM
same,TGI,SNB-19 CNS,22.6 µM
same,TGI,HCC-2998 colon,2.6 µM
same,TGI,MOLT-4 leukemia,16.5 µM
same,TGI,SW-620 colon,13.5 µM
same,TGI,NCI-H226 lung,30.2 µM
same,TGI,LOX IMVI melanoma,11.5 µM
same,TGI,786-0 renal,19.1 µM
same,TGI,NCI-H522 lung,16.5 µM
same,TGI,SN12C renal,23.7 µM
same,TGI,HL-60(TB) leukemia,20.3 µM
same,TGI,COLO 205 colon,3.12 µM
same,TGI,UACC-257 melanoma,3.48 µM
same,TGI,A498 renal,24.7 µM
same,TGI,OVCAR-5 ovarian,24.5 µM
same,TGI,NCI-H460 lung,11.3 µM
same,TGI,SNB-75 CNS,9.56 µM
same,TGI,HS 578T breast,26 µM
same,TGI,RXF 393 renal,10.2 µM
same,TGI,DU-145 prostate,19.4 µM
same,TGI,U251 CNS,14.5 µM
same,TGI,ACHN renal,22.2 µM
same,TGI,NCI-H23 lung,26.1 µM
same,TGI,TK-10 renal,19.3 µM
same,TGI,BT-549 breast,27.8 µM
same,TGI,RPMI-8226 leukemia,9.99 µM
same,TGI,OVCAR-3 ovarian,11.9 µM
same,TGI,EKVX NSCLC,24.3 µM
same,TGI,KM12 colon,17.5 µM
same,TGI,HT29 colon,11.2 µM
same,TGI,SR leukemia,7.83 µM
same,TGI,SK-MEL-2 melanoma,9.52 µM
same,TGI,CCRF-CEM leukemia,14.3 µM
same,TGI,SK-OV-3 ovarian,26 µM
same,TGI,IGROV1 ovarian,23.2 µM
same,TGI,SF-268 CNS,20.9 µM
same,TGI,MALME-3M melanoma,3.91 µM
same,TGI,MCF7 breast,11.2 µM
same,TGI,UO-31 renal,19.4 µM
same,TGI,HCT-116 colon,12.8 µM
same,TGI,M14 melanoma,3.36 µM
same,TGI,UACC-62 melanoma,10.5 µM
same,TGI,SF-295 CNS,29.1 µM
same,TGI,MDA-MB-435,8.7 µM
same,TGI,PC-3 prostate,17.2 µM
same,TGI,SK-MEL-28 melanoma,4.32 µM
same,TGI,A549 NSCLC,22.8 µM
same,TGI,OVCAR-8 ovarian,27.2 µM
same,TGI,NCI/ADR-RES ovarian,24.5 µM
